# Source: the OligoGym collection
# Oligonucleotides are given in HELM: sugar(base)linkage, 5' to 3'; d 2'-deoxyribose, r ribose, m 2'-O-methylribose, p phosphate. ss, as = sense and antisense strand
# Biological target: TMEM63B
# Experiment: reporter assay of Huesken 2005
# Details: siRNA
# Also: test concentration or dose not given here.
row,Substance,normalised inhibition (eCFP-eYFP dual reporter)
1,RNA1{r(G)p.r(U)p.r(C)p.r(U)p.r(C)p.r(C)p.r(A)p.r(G)p.r(C)p.r(U)p.r(C)p.r(C)p.r(G)p.r(U)p.r(U)p.r(G)p.r(A)p.r(C)p.r(U)p.d(T)p.d(T)}|RNA2{r(A)p.r(G)p.r(U)p.r(C)p.r(A)p.r(A)p.r(C)p.r(G)p.r(G)p.r(A)p.r(G)p.r(C)p.r(U)p.r(G)p.r(G)p.r(A)p.r(G)p.r(A)p.r(C)p.d(A)p.d(G)}$$$RNA1{StrandType:ss}|RNA2{StrandType:as}$,69.5%
2,RNA1{r(C)p.r(U)p.r(U)p.r(U)p.r(U)p.r(C)p.r(C)p.r(A)p.r(C)p.r(C)p.r(A)p.r(U)p.r(G)p.r(C)p.r(G)p.r(C)p.r(A)p.r(C)p.r(G)p.d(T)p.d(T)}|RNA2{r(C)p.r(G)p.r(U)p.r(G)p.r(C)p.r(G)p.r(C)p.r(A)p.r(U)p.r(G)p.r(G)p.r(U)p.r(G)p.r(G)p.r(A)p.r(A)p.r(A)p.r(A)p.r(G)p.d(A)p.d(A)}$$$RNA1{StrandType:ss}|RNA2{StrandType:as}$,0%
3,RNA1{r(U)p.r(C)p.r(G)p.r(U)p.r(C)p.r(C)p.r(U)p.r(C)p.r(U)p.r(U)p.r(C)p.r(A)p.r(U)p.r(C)p.r(C)p.r(U)p.r(C)p.r(C)p.r(U)p.d(T)p.d(T)}|RNA2{r(A)p.r(G)p.r(G)p.r(A)p.r(G)p.r(G)p.r(A)p.r(U)p.r(G)p.r(A)p.r(A)p.r(G)p.r(A)p.r(G)p.r(G)p.r(A)p.r(C)p.r(G)p.r(A)p.d(C)p.d(A)}$$$RNA1{StrandType:ss}|RNA2{StrandType:as}$,55.8%
4,RNA1{r(G)p.r(U)p.r(A)p.r(C)p.r(U)p.r(A)p.r(C)p.r(A)p.r(C)p.r(A)p.r(A)p.r(A)p.r(G)p.r(C)p.r(U)p.r(G)p.r(G)p.r(A)p.r(G)p.d(T)p.d(T)}|RNA2{r(C)p.r(U)p.r(C)p.r(C)p.r(A)p.r(G)p.r(C)p.r(U)p.r(U)p.r(U)p.r(G)p.r(U)p.r(G)p.r(U)p.r(A)p.r(G)p.r(U)p.r(A)p.r(C)p.d(T)p.d(C)}$$$RNA1{StrandType:ss}|RNA2{StrandType:as}$,58.4%
5,RNA1{r(G)p.r(C)p.r(U)p.r(G)p.r(C)p.r(U)p.r(G)p.r(A)p.r(A)p.r(G)p.r(C)p.r(A)p.r(C)p.r(C)p.r(U)p.r(G)p.r(G)p.r(U)p.r(A)p.d(T)p.d(T)}|RNA2{r(U)p.r(A)p.r(C)p.r(C)p.r(A)p.r(G)p.r(G)p.r(U)p.r(G)p.r(C)p.r(U)p.r(U)p.r(C)p.r(A)p.r(G)p.r(C)p.r(A)p.r(G)p.r(C)p.d(A)p.d(T)}$$$RNA1{StrandType:ss}|RNA2{StrandType:as}$,82.4%
6,RNA1{r(A)p.r(G)p.r(A)p.r(G)p.r(A)p.r(G)p.r(G)p.r(A)p.r(A)p.r(G)p.r(A)p.r(A)p.r(G)p.r(G)p.r(C)p.r(C)p.r(G)p.r(A)p.r(G)p.d(T)p.d(T)}|RNA2{r(C)p.r(U)p.r(C)p.r(G)p.r(G)p.r(C)p.r(C)p.r(U)p.r(U)p.r(C)p.r(U)p.r(U)p.r(C)p.r(C)p.r(U)p.r(C)p.r(U)p.r(C)p.r(U)p.d(G)p.d(C)}$$$RNA1{StrandType:ss}|RNA2{StrandType:as}$,49.4%
7,RNA1{r(U)p.r(U)p.r(U)p.r(A)p.r(U)p.r(C)p.r(G)p.r(G)p.r(C)p.r(A)p.r(A)p.r(C)p.r(G)p.r(C)p.r(C)p.r(A)p.r(U)p.r(G)p.r(G)p.d(T)p.d(T)}|RNA2{r(C)p.r(C)p.r(A)p.r(U)p.r(G)p.r(G)p.r(C)p.r(G)p.r(U)p.r(U)p.r(G)p.r(C)p.r(C)p.r(G)p.r(A)p.r(U)p.r(A)p.r(A)p.r(A)p.d(G)p.d(G)}$$$RNA1{StrandType:ss}|RNA2{StrandType:as}$,36.7%
8,RNA1{r(U)p.r(C)p.r(U)p.r(G)p.r(U)p.r(C)p.r(U)p.r(C)p.r(U)p.r(G)p.r(C)p.r(C)p.r(A)p.r(C)p.r(G)p.r(U)p.r(C)p.r(U)p.r(G)p.d(T)p.d(T)}|RNA2{r(C)p.r(A)p.r(G)p.r(A)p.r(C)p.r(G)p.r(U)p.r(G)p.r(G)p.r(C)p.r(A)p.r(G)p.r(A)p.r(G)p.r(A)p.r(C)p.r(A)p.r(G)p.r(A)p.d(T)p.d(G)}$$$RNA1{StrandType:ss}|RNA2{StrandType:as}$,68.3%
9,RNA1{r(A)p.r(C)p.r(U)p.r(A)p.r(C)p.r(A)p.r(A)p.r(G)p.r(C)p.r(G)p.r(G)p.r(G)p.r(A)p.r(G)p.r(A)p.r(A)p.r(G)p.r(G)p.r(A)p.d(T)p.d(T)}|RNA2{r(U)p.r(C)p.r(C)p.r(U)p.r(U)p.r(C)p.r(U)p.r(C)p.r(C)p.r(C)p.r(G)p.r(C)p.r(U)p.r(U)p.r(G)p.r(U)p.r(A)p.r(G)p.r(U)p.d(C)p.d(T)}$$$RNA1{StrandType:ss}|RNA2{StrandType:as}$,72%
10,RNA1{r(C)p.r(C)p.r(U)p.r(U)p.r(C)p.r(C)p.r(A)p.r(C)p.r(A)p.r(A)p.r(U)p.r(G)p.r(A)p.r(G)p.r(A)p.r(C)p.r(U)p.r(A)p.r(U)p.d(T)p.d(T)}|RNA2{r(A)p.r(U)p.r(A)p.r(G)p.r(U)p.r(C)p.r(U)p.r(C)p.r(A)p.r(U)p.r(U)p.r(G)p.r(U)p.r(G)p.r(G)p.r(A)p.r(A)p.r(G)p.r(G)p.d(T)p.d(G)}$$$RNA1{StrandType:ss}|RNA2{StrandType:as}$,72.3%
11,RNA1{r(G)p.r(C)p.r(C)p.r(U)p.r(A)p.r(C)p.r(G)p.r(C)p.r(C)p.r(U)p.r(G)p.r(G)p.r(A)p.r(U)p.r(G)p.r(A)p.r(U)p.r(G)p.r(U)p.d(T)p.d(T)}|RNA2{r(A)p.r(C)p.r(A)p.r(U)p.r(C)p.r(A)p.r(U)p.r(C)p.r(C)p.r(A)p.r(G)p.r(G)p.r(C)p.r(G)p.r(U)p.r(A)p.r(G)p.r(G)p.r(C)p.d(T)p.d(G)}$$$RNA1{StrandType:ss}|RNA2{StrandType:as}$,72.3%
12,RNA1{r(C)p.r(A)p.r(U)p.r(C)p.r(C)p.r(C)p.r(A)p.r(A)p.r(G)p.r(A)p.r(U)p.r(G)p.r(A)p.r(G)p.r(G)p.r(A)p.r(G)p.r(U)p.r(U)p.d(T)p.d(T)}|RNA2{r(A)p.r(A)p.r(C)p.r(U)p.r(C)p.r(C)p.r(U)p.r(C)p.r(A)p.r(U)p.r(C)p.r(U)p.r(U)p.r(G)p.r(G)p.r(G)p.r(A)p.r(U)p.r(G)p.d(A)p.d(G)}$$$RNA1{StrandType:ss}|RNA2{StrandType:as}$,53%
13,RNA1{r(C)p.r(G)p.r(G)p.r(C)p.r(C)p.r(G)p.r(C)p.r(C)p.r(G)p.r(A)p.r(G)p.r(A)p.r(G)p.r(G)p.r(C)p.r(G)p.r(C)p.r(A)p.r(A)p.d(T)p.d(T)}|RNA2{r(U)p.r(U)p.r(G)p.r(C)p.r(G)p.r(C)p.r(C)p.r(U)p.r(C)p.r(U)p.r(C)p.r(G)p.r(G)p.r(C)p.r(G)p.r(G)p.r(C)p.r(C)p.r(G)p.d(A)p.d(G)}$$$RNA1{StrandType:ss}|RNA2{StrandType:as}$,72.9%
14,RNA1{r(G)p.r(C)p.r(A)p.r(C)p.r(A)p.r(A)p.r(G)p.r(U)p.r(G)p.r(C)p.r(U)p.r(A)p.r(C)p.r(A)p.r(C)p.r(U)p.r(U)p.r(U)p.r(C)p.d(T)p.d(T)}|RNA2{r(G)p.r(A)p.r(A)p.r(A)p.r(G)p.r(U)p.r(G)p.r(U)p.r(A)p.r(G)p.r(C)p.r(A)p.r(C)p.r(U)p.r(U)p.r(G)p.r(U)p.r(G)p.r(C)p.d(A)p.d(T)}$$$RNA1{StrandType:ss}|RNA2{StrandType:as}$,83.6%
15,RNA1{r(A)p.r(U)p.r(C)p.r(A)p.r(A)p.r(U)p.r(G)p.r(U)p.r(C)p.r(G)p.r(U)p.r(C)p.r(C)p.r(U)p.r(C)p.r(U)p.r(U)p.r(C)p.r(A)p.d(T)p.d(T)}|RNA2{r(U)p.r(G)p.r(A)p.r(A)p.r(G)p.r(A)p.r(G)p.r(G)p.r(A)p.r(C)p.r(G)p.r(A)p.r(C)p.r(A)p.r(U)p.r(U)p.r(G)p.r(A)p.r(U)p.d(G)p.d(A)}$$$RNA1{StrandType:ss}|RNA2{StrandType:as}$,49.2%
16,RNA1{r(C)p.r(G)p.r(C)p.r(U)p.r(C)p.r(A)p.r(G)p.r(G)p.r(U)p.r(G)p.r(C)p.r(U)p.r(G)p.r(C)p.r(A)p.r(G)p.r(G)p.r(A)p.r(C)p.d(T)p.d(T)}|RNA2{r(G)p.r(U)p.r(C)p.r(C)p.r(U)p.r(G)p.r(C)p.r(A)p.r(G)p.r(C)p.r(A)p.r(C)p.r(C)p.r(U)p.r(G)p.r(A)p.r(G)p.r(C)p.r(G)p.d(A)p.d(T)}$$$RNA1{StrandType:ss}|RNA2{StrandType:as}$,46.2%
17,RNA1{r(A)p.r(C)p.r(C)p.r(A)p.r(G)p.r(G)p.r(U)p.r(G)p.r(G)p.r(U)p.r(G)p.r(G)p.r(C)p.r(C)p.r(G)p.r(C)p.r(G)p.r(C)p.r(C)p.d(T)p.d(T)}|RNA2{r(G)p.r(G)p.r(C)p.r(G)p.r(C)p.r(G)p.r(G)p.r(C)p.r(C)p.r(A)p.r(C)p.r(C)p.r(A)p.r(C)p.r(C)p.r(U)p.r(G)p.r(G)p.r(U)p.d(T)p.d(C)}$$$RNA1{StrandType:ss}|RNA2{StrandType:as}$,57.6%
18,RNA1{r(C)p.r(C)p.r(U)p.r(A)p.r(C)p.r(A)p.r(G)p.r(C)p.r(U)p.r(U)p.r(U)p.r(G)p.r(G)p.r(G)p.r(A)p.r(G)p.r(A)p.r(A)p.r(C)p.d(T)p.d(T)}|RNA2{r(G)p.r(U)p.r(U)p.r(C)p.r(U)p.r(C)p.r(C)p.r(C)p.r(A)p.r(A)p.r(A)p.r(G)p.r(C)p.r(U)p.r(G)p.r(U)p.r(A)p.r(G)p.r(G)p.d(C)p.d(A)}$$$RNA1{StrandType:ss}|RNA2{StrandType:as}$,81.9%
19,RNA1{r(G)p.r(G)p.r(A)p.r(U)p.r(G)p.r(A)p.r(U)p.r(C)p.r(U)p.r(G)p.r(G)p.r(U)p.r(G)p.r(A)p.r(A)p.r(G)p.r(C)p.r(G)p.r(G)p.d(T)p.d(T)}|RNA2{r(C)p.r(C)p.r(G)p.r(C)p.r(U)p.r(U)p.r(C)p.r(A)p.r(C)p.r(C)p.r(A)p.r(G)p.r(A)p.r(U)p.r(C)p.r(A)p.r(U)p.r(C)p.r(C)p.d(T)p.d(C)}$$$RNA1{StrandType:ss}|RNA2{StrandType:as}$,63.9%
20,RNA1{r(G)p.r(A)p.r(C)p.r(U)p.r(U)p.r(U)p.r(G)p.r(A)p.r(C)p.r(C)p.r(A)p.r(A)p.r(A)p.r(G)p.r(G)p.r(G)p.r(A)p.r(C)p.r(A)p.d(T)p.d(T)}|RNA2{r(U)p.r(G)p.r(U)p.r(C)p.r(C)p.r(C)p.r(U)p.r(U)p.r(U)p.r(G)p.r(G)p.r(U)p.r(C)p.r(A)p.r(A)p.r(A)p.r(G)p.r(U)p.r(C)p.d(A)p.d(A)}$$$RNA1{StrandType:ss}|RNA2{StrandType:as}$,89.5%
